Tests used:
Type in all cases: binding
[1] = target: T1, LXRα (Homo sapiens, UniProt Q13133); experiment: intrinsic aromatic fluorescence quenching (positive control), CD; LXRE reporter activation
T1 construct: gene NR1H3
T1 sequence (Q13133 1-447): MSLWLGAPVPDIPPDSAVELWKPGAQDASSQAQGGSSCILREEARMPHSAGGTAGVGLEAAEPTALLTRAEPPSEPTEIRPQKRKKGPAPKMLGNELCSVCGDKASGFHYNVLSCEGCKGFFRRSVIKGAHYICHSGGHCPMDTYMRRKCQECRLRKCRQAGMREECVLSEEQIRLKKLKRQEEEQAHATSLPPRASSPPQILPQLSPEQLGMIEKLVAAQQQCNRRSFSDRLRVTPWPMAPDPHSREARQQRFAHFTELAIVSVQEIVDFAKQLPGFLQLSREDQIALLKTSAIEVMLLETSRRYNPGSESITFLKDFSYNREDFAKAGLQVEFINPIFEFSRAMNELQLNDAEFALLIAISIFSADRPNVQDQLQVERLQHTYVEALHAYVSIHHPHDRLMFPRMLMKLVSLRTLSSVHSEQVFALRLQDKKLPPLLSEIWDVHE

[2] = target: T1, LXRα; experiment: intrinsic aromatic fluorescence quenching; also displacement of BODIPY C16-CoA (Ki […]); CD
[3] = target: T1, LXRα; experiment: as above; remark: listed apart in the source
[4] = target: T1, LXRα; experiment: displacement of LXRα-bound BODIPY C16-CoA; CD change
[5] = target: T1, LXRα; experiment: intrinsic aromatic fluorescence quenching; displacement Ki […]; LXRE reporter activation
[6] = target: T1, LXRα; experiment: intrinsic aromatic fluorescence quenching; also displacement of BODIPY C16-CoA (Ki […])
[7] = target: T1, LXRα; experiment: as above; remark: listed apart in the source

SMILES: C[C@H](CCCC(C)(C)O)[C@H]1CC[C@H]2[C@@H]3CC=C4C[C@@H](O)CC[C@]4(C)[C@H]3CC[C@]12C [25-HC, 25-hydroxycholesterol]
- intrinsic aromatic fluorescence quenching (positive control), CD; LXRE reporter [1]: Binding with T-0901317 and 25-hydroxycholesterol (positive controls) yielded binding curves that were sharply saturable

SMILES: CCCCCCCC(=O)SCCNC(=O)CCNC(=O)[C@H](O)C(C)(C)COP(=O)(O)OP(=O)(O)OC[C@H]1O[C@@H](n2cnc3c(N)ncnc32)[C@H](O)[C@@H]1OP(=O)(O)O [C8:0-CoA, Octanoyl-CoA]
- Kd [2]: 15 ± 5 nM

SMILES: CCCCCCCCCC(=O)O [C10:0, Decanoic acid]
- Kd [3]: 15 ± 6 nM

SMILES: CCCCCCCCCC(=O)SCCNC(=O)CCNC(=O)[C@H](O)C(C)(C)COP(=O)(O)OP(=O)(O)OC[C@H]1O[C@@H](n2cnc3c(N)ncnc32)[C@H](O)[C@@H]1OP(=O)(O)O [C10:0-CoA, Decanoyl-CoA]
- Ki [4]: 7 ± 3 nM

SMILES: CCCCCCCCCCCC(=O)O [C12:0, Lauric acid]
- Kd [5]: 11 ± 4 nM

SMILES: CCCCCCCCCCCC(=O)SCCNC(=O)CCNC(=O)[C@H](O)C(C)(C)COP(=O)(O)OP(=O)(O)OC[C@H]1O[C@@H](n2cnc3c(N)ncnc32)[C@H](O)[C@@H]1OP(=O)(O)O [C12:0-CoA, Lauroyl-CoA]
- Kd [6]: 18 ± 8 nM

SMILES: CCCCCCCCCCCCCCCC(=O)SCCNC(=O)CCNC(=O)[C@H](O)C(C)(C)COP(=O)(O)OP(=O)(O)OC[C@H]1O[C@@H](n2cnc3c(N)ncnc32)[C@H](O)[C@@H]1OP(=O)(O)O [C16:0-CoA, Palmitoyl-CoA]
- Kd [7]: 14 ± 7 nM

From publication PMC5282955, “Fatty acid binding profile of the liver X receptor α” (Journal of Lipid Research, 2017)
